The text below walks through data of US20250115597A1, “TYK2 INHIBITORS AND COMPOSITIONS AND METHODS THEREOF” (LYNK PHARMACEUTICALS CO. LTD., priority 2021, published 2025).

pIC50: −log10 of the molar value. Converted amounts (≈) assume the structure as drawn. Read-outs that look alike come from different tables or passages of the source.

A word on the solubility: it is the concentration that dissolves in the medium under given conditions. A word on the pIC50: it is the IC50 on a negative log10 scale, so that one unit is a factor of ten.

The nature of data set [1]: Microsomal metabolic stability assay. The conditions noted are these: pH 7.4, 0.5 mg/mL protein, 1 μM compound. Format: in vitro ADME. In short, it runs like this: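 Parent loss was tracked by LC/MS/MS at 0, 5, 15, 30 and 45 min, with half-life derived from the ln(% remaining)–time slope. Incubation at 37 °C, pH 7.4 phosphate/EDTA buffer: 0.5 mg/mL microsomes, 1 μM compound, NADPH-regenerated (2 mM).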

The nature of the next data set: Kinetic solubility. It counts as physicochemical. The conditions noted are these: phosphate buffer, aqueous buffer, kinetic from dmso stock, PBS (pH 7.4), 1% DMSO, room temperature. The protocol:
Aliquots of 8 μL of reference and test compound stock solutions (10 mM/5 mM) are added into 792 μL of 100 mM pH 7.4 phosphate buffer. The final DMSO concentration is 1%. Sample tubes are shaken for 2 hours at 1000 rpm at room temperature. Samples are centrifuged at 12000 rpm for 10 min to precipitate un-dissolved particles. And transfer the supernatants to a new tube or plate. Add 5 μL of samples (no diluted, 10 times diluted and 100 times diluted) and standard curve samples to 95 μL of ACN containing IS for LC-MS/MS analysis.

For data set [2], the target named is T1, Ba/F3-FL-TYK2-P760L cells (Homo sapiens, UniProt P29597, P760L, cells depend on it).
T1 construct: BaF3-FL-T2P760L (nM)
T1 sequence (P29597 whole entry P760L): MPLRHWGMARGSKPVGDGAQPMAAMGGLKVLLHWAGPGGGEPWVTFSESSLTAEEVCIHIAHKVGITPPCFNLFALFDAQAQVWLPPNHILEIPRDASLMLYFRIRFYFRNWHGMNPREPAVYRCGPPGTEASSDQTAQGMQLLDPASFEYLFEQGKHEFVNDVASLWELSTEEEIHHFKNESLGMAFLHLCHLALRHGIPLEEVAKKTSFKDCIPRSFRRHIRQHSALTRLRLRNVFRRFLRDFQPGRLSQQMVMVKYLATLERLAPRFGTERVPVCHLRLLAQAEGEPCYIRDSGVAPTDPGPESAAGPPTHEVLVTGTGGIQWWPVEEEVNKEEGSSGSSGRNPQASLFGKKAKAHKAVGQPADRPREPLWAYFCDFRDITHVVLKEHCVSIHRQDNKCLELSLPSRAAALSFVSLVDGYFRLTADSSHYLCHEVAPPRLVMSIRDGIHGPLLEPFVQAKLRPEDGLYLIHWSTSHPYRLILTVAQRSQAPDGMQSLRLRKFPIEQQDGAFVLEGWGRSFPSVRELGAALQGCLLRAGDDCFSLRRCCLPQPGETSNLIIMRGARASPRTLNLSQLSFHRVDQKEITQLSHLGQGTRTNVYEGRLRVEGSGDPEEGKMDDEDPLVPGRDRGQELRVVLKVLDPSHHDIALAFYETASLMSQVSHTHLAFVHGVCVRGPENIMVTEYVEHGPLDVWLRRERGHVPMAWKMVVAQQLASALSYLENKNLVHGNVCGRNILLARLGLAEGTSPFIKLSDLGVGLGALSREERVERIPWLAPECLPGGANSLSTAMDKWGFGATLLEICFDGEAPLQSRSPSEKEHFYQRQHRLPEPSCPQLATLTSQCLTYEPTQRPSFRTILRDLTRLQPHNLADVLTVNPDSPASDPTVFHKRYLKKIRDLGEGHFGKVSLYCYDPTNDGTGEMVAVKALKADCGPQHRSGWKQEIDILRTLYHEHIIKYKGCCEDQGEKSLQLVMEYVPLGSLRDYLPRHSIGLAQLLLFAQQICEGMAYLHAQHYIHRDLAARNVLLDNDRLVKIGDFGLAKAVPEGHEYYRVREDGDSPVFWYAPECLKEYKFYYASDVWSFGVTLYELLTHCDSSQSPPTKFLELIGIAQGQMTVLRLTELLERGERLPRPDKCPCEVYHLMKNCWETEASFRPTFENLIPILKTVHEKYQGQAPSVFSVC
Briefly: Anti-proliferative assay, Ba/F3-FL-TYK2-P760L cells (Cell-Titer Glo). Format: cell-based. Particulars: 72 h, read-out: BaF3-FL-T2P760L IC50. In short, it runs like this:
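Compound exposure ran 72 h at 37 °C in 5% CO2 across nine 3-fold concentrations from a 20 μM top dose, added 24 h after seeding 2000 cells/well.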

The next data set deals with T2, JAK1 (Homo sapiens, UniProt P23458).
T2 construct: purchased Carna Biosciences
T2 sequence (P23458 whole entry): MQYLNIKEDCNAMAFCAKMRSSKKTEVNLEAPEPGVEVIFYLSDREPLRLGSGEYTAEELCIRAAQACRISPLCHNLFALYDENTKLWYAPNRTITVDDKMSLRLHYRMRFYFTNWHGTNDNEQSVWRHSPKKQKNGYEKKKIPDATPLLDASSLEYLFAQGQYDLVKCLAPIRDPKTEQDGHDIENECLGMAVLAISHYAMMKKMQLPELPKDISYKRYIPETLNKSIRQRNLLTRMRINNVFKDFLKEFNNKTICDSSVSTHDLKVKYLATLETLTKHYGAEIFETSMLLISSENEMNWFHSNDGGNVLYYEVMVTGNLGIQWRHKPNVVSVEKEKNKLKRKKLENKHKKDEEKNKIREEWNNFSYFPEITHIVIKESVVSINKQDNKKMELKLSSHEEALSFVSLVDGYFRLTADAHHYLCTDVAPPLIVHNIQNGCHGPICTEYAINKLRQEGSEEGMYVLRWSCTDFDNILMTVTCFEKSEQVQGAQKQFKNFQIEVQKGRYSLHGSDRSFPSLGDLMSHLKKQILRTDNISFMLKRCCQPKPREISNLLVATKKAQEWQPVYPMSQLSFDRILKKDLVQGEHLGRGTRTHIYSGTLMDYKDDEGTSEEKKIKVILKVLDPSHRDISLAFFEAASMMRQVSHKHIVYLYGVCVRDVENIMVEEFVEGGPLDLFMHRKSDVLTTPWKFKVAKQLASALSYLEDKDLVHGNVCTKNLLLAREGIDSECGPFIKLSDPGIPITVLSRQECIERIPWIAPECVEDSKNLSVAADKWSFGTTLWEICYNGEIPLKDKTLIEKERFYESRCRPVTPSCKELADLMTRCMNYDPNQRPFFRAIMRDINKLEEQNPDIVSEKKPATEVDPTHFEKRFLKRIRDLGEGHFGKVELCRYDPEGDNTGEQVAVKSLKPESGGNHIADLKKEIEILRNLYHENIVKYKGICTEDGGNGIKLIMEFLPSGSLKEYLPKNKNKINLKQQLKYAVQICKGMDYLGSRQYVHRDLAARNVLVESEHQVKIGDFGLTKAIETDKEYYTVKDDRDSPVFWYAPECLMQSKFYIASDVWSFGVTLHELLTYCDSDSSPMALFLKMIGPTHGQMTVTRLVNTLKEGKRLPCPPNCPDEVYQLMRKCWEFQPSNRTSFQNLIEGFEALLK
Briefly: JAK1 kinase activity, microfluidic assay (Caliper EZ Reader II). Format: biochemical. Particulars: JAK1 5 nM, 1 mM ATP. As for the experimental part: (§1) Testing for JAK1, JAK2 and TYK2 Kinase Activities
(§2) JAK activity was determined in the reaction buffer 50 mM HEPES, 0.01% Brij35, 10 mM MgCl2, 2 mM DTT by a microfluidic assay. The phosphorylation of a FAM labeled peptide substrate was monitored in the Caliper EZ Reader II (Perkin Elmer). The assay condition for each batch of enzyme (Carna Biosciences) was optimized to obtain 10% conversion rate of peptide substrate.
(§3) The test compounds were dissolved in DMSO to a stock concentration of 10 mM. Three-fold serially diluted compounds with top concentration of 5 μM were pre-incubated with JAK1, JAK2 or TYK2 for 10 min at ambient temperature. The final DMSO concentration of assay mixture was 1%. […] The reaction was stopped by adding 50 mM EDTA.
(§4) The percent inhibition was calculated by the following formula:
(§5) [formula] • wherein • Conversion %_max=the conversion rate in the positive well without addition of compound • Conversion %_sample=the conversion rate of test compounds • Conversion %_min=the conversion rate in the well without addition of enzyme
(§6) The dose-response (percent inhibition) curve was plotted and IC50 values were determined by GraphPad software.

The next data set has as its target T3, TYK2 (Homo sapiens, UniProt P29597).
T3 construct: purchased Carna Biosciences
The data set can be described thus: TYK2 kinase activity, microfluidic assay (Caliper EZ Reader II). Particulars: TYK2 1 nM, 1 mM ATP. Format: biochemical. As for the experimental part: as §1, §2, §3, §4, §5, §6

The target of a further data set is T4, JAK2 (Homo sapiens, UniProt O60674).
T4 construct: purchased Carna Biosciences
T4 sequence (O60674 whole entry): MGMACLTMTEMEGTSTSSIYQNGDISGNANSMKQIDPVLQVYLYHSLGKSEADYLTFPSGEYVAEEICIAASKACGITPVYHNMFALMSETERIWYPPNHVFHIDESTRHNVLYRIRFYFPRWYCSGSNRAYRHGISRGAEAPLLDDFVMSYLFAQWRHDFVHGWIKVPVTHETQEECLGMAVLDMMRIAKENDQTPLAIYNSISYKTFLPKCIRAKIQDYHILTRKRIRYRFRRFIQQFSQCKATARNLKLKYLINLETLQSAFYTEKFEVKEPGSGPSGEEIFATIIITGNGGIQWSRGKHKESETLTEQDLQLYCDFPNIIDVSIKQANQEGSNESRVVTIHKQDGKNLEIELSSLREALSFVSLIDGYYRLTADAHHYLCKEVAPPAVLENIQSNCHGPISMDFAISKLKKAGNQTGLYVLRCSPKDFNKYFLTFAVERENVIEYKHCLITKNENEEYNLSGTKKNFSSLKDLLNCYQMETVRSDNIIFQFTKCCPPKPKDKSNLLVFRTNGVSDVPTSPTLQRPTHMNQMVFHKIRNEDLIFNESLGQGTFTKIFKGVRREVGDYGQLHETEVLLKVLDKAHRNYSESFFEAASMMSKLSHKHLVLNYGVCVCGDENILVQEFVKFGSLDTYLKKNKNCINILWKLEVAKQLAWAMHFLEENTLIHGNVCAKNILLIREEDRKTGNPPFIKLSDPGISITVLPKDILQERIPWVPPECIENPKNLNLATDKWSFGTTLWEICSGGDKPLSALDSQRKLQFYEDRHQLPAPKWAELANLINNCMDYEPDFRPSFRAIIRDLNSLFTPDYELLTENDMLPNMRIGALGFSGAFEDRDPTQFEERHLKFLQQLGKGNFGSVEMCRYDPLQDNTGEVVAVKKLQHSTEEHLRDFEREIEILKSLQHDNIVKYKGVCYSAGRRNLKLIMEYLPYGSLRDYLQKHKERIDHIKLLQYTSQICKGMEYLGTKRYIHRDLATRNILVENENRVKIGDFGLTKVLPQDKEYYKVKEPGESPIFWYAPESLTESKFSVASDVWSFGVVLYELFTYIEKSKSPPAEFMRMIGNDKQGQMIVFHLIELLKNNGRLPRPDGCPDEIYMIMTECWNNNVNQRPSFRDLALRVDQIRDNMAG
The data set can be described thus: JAK2 kinase activity, microfluidic assay (Caliper EZ Reader II). Format: biochemical. The conditions noted are these: JAK2 0.125 nM, 1 mM ATP. As for the experimental part: as §1, §2, §3, §4, §5, §6

For a further data set, the target named is T5, Ba/F3-TEL-TYK2 cells (Homo sapiens, UniProt P29597).
T5 construct: fused on or other part: Dimerization domain of TEL (ETV6) fused to the TYK2 kinase domain; P41212 (Transcription factor ETV6)
T5 sequence (P29597 whole entry, change not shown, the tested form may be a part): as the sequence (P29597 whole entry P760L) above, with L760P counted along it
Briefly: Anti-proliferative assay, Ba/F3-TEL-TYK2 cells (Cell-Titer Glo). It counts as cell-based. The conditions noted are these: 72 h, read-out: BaF3-TEL-TYK2 IC50. As for the experimental part:
Anti-Proliferative Assay Dimerization domain of Tel protein fused with JAK kinase domain was permanently transduced into Ba/F3 cells, whose proliferation is dependent on JAK activity in the absence of IL-3 induction. These engineered Ba/F3 cells (Ba/F3-FL-TYK2-[…], Ba/F3-TEL-TYK2 and Ba/F3-TEL-JAK2) were used to monitor JAK inhibitory activities of the compounds in the cellular. […] Cells were seeded at 2000/well of white flat bottom 96-well plates. The well containing medium only was used as background control. After 24 h growth, cells were treated with compounds. The test compounds were dissolved in DMSO to a stock concentration of 20 mM. 3-fold serially diluted compounds for 9 concentrations with top concentration of 20 μM was added into the each well. […] The cells continued to grow at 37° C. in 5% CO2 for 72 h after compound treatment. The viability was measured by cellular ATP determination using the Cell-Titer Glo luciferase reagent (Promega). The Luminescence value was recorded by a multi-label reader Envision (PerkinElmer).

For another data set, the target named is T6, TYK2-JH2 domain (Homo sapiens, UniProt P29597).
T6 construct: IC50 on JH2 domain activity (nM)
T6 sequence (P29597 589-875 limits assumed): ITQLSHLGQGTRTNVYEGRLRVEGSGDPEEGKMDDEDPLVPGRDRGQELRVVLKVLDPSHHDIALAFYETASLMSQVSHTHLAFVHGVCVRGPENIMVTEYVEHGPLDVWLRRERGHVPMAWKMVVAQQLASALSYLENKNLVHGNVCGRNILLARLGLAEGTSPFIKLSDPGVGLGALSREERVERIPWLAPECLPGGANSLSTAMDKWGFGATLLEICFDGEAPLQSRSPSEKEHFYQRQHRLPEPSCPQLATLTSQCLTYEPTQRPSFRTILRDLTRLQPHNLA
Briefly: Binding activity test for JH2 domain of TYK2 (Tb-antibody/tracer FRET). In short, it runs like this: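 FRET read-out after 60 min at 25° C plus overnight at 4° C; tracer displacement detected via Tb-labelled antibody on the JH2 domain. Dose-response used 11 points at 3-fold dilution.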

[3] abbreviates: dog liver microsomes, read-out: Dog LM Clint.
Where [4] appears, read: dog liver microsomes, read-out: Dog LM T½.
[5] abbreviates: human liver microsomes, read-out: Human LM Clint.
The mark [6] stands for this setting: human liver microsomes, read-out: Human LM T½.
Where [7] appears, read: rat liver microsomes, read-out: Rat LM Clint.
Setting [8] is: rat liver microsomes, read-out: Rat LM T½.

T3 sequence (P29597 whole entry): as the sequence (P29597 whole entry P760L) above, with L760P counted along it

`CNC(=O)c1nnc(NC(=O)C2CC2)cc1Nc1cn(C)c2ccn(C)c(=O)c12` [Example 49, 6-(Cyclopropanecarboxamido)-4-((1,5-dimethyl-4-oxo-4,5-dihydro-1H-pyrrolo[3,2-c]pyridin-3-yl)amino)-N-methylpyridazine-3-carboxamide]: the figures for the microsomal CLint at 1 μM in data set [1] (setting [3]), in data set [1] (setting [5]) and in data set [1] (setting [7]) were under 11.5 µL/min/mg, 14.4 µL/min/mg and 32.4 µL/min/mg, respectively. Moreover, the figures for the half-life at 1 μM in data set [1] (setting [4]), in data set [1] (setting [6]) and in data set [1] (setting [8]) were over 120 min, 96.2 min and 42.8 min, respectively. The same compound gave a solubility at 2 h in the data set “Kinetic solubility” of 6.3 µM (≈ 2.49 µg/mL). Besides, the GI50 in data set [2] worked out at 111 nM.

As to `CCN1CCc2scc(Nc3cc(NC(=O)C4CC4)ncc3C(=O)NC)c2C1=O` [Example 39, 6-(Cyclopropanecarboxamido)-4-((5-ethyl-4-oxo-4,5,6,7-tetrahydrothieno [3,2-c]pyridin-3-yl)amino)-N-methyl-nicotinamide], the negative logarithm of the IC50 (pIC50) against JAK1, at TYK2 and on JAK2 was under 5.30 throughout. Also, the GI50 in data set [2] amounted to 88.1 nM.

As to `[2H]C([2H])([2H])NC(=O)c1cnc2cc1Nc1cc(cc(-c3ncn(CC)n3)c1OC)COCc1nc(ccc1F)N2` [Example 85, 11-(1-Ethyl-1H-1,2,4-triazol-3-yl)-18-fluoro-10-methoxy-N-(methyl-d3)-15-oxa-2,4,8,21-tetraazatetracyclo[15.3.1.1^{3,7}.1^{9,13}]tricosa-1(20),3,5,7(23),9,11,13(22),17(21),18-nonaene-6-carboxamide], in “Kinetic solubility”, the solubility at 2 h was 15.2 µM (≈ 7.74 µg/mL). In addition, the GI50 in data set [2] was determined as 142 nM.

On to `[2H]C([2H])([2H])NC(=O)c1cnc(NC(=O)C2CC2)cc1Nc1ccc2ncn(CC)c2c1OC` [Example 167, 6-(Cyclopropanecarboxamido)-4-((1-ethyl-7-methoxy-1H-benzo[d]imidazol-6-yl)amino)-N-(methyl-d3)nicotinamide], for which the microsomal CLint at 1 μM in data set [1] (setting [3]) was found to be 45 µL/min/mg; in data set [1] (setting [5]), 57.8 µL/min/mg; in data set [1] (setting [7]) it was 149 µL/min/mg. The half-life at 1 μM came out at 30.8 min in data set [1] (setting [4]), 24 min in data set [1] (setting [6]) and 9.29 min in data set [1] (setting [8]). In the data set “Kinetic solubility”, this compound yielded a solubility at 2 h of 109 µM (≈ 44.9 µg/mL). For the same compound, the GI50 in data set [2] is 100 nM.

On to `CCn1ccc2c(c(Nc3cc(NC(=O)C4CC4)nnc3C(=O)NC)cn2C)c1=O` [Example 23, 6-(Cyclopropanecarboxamido)-4-((5-ethyl-1-methyl-4-oxo-4,5-dihydro-1H-pyrrolo[3,2-c]pyridin-3-yl)amino)-N-methylpyridazine-3-carboxamide], for which the GI50 at Ba/F3-TEL-TYK2 cells is over 20000 nM; in data set [2] it was 62.9 nM. The values for the microsomal CLint at 1 μM in data set [1] (setting [3]), in data set [1] (setting [5]) and in data set [1] (setting [7]) were 21.4 µL/min/mg, 80 µL/min/mg and 35.8 µL/min/mg, respectively. In addition, the half-life at 1 μM in data set [1] (setting [4]) worked out at 64.8 min; in data set [1] (setting [6]), 17.3 min; in data set [1] (setting [8]) it was 38.7 min. This compound had a pIC50 on TYK2-JH2 domain of 8.88.

Consider `CNC(=O)c1cnc2nc1Nc1cc(cc(-c3ncn(C)n3)c1OC)COCc1cccc(c1)N2` [Example 33, 10-Methoxy-N-methyl-11-(1-methyl-1,2,4-triazol-3-yl)-15-oxa-2,4,8,23-tetrazatetracyclo[15.3.1.13,7.19,13]tricosa-1(21),3(23),4,6,9,11,13(22),17,19-nonaene-6-carboxamide], for which the negative-log IC50 (pIC50) on JAK1, against TYK2 and against JAK2 was under 5.30 throughout. Further, the microsomal CLint at 1 μM stood at 14.5 µL/min/mg in data set [1] (setting [3]), 26.2 µL/min/mg in data set [1] (setting [5]) and 21.8 µL/min/mg in data set [1] (setting [7]). Further, the half-life at 1 μM was found to be 238 min in data set [1] (setting [4]), 132 min in data set [1] (setting [6]) and 159 min in data set [1] (setting [8]). Besides, the GI50 in data set [2] is 499 nM.

In turn, `[2H]C([2H])([2H])NC(=O)c1cnc(Nc2ccn(C)n2)cc1Nc1nn(C)c2ccn(CC)c(=O)c12` [Example 219] registered a solubility at 2 h in “Kinetic solubility” of 33.9 µM (≈ 14.4 µg/mL). In addition, the pIC50 on TYK2-JH2 domain is 8.54. Moreover, in data set [2], the GI50 was 1260 nM.

In the case of `CNC(=O)c1nnc(NC(=O)C2CC2)cc1Nc1csc2ccn(C)c(=O)c12` [Example 27, 6-(Cyclopropanecarboxamido)-N-methyl-4-((5-methyl-4-oxo-4,5-dihydrothieno[3,2-c]pyridin-3-yl)amino)pyridazine-3-carboxamide], the pIC50 is under 5.30 against JAK1, under 5.30 against TYK2, 9.32 at TYK2-JH2 domain and under 5.30 at JAK2. Further, the results for the GI50 (on Ba/F3-TEL-TYK2 cells; in data set [2]) were over 20000 nM and 50.9 nM, respectively.

With `CNC(=O)c1cnc2nc1Nc1cc(cc(-c3ncn(C)n3)c1OC)CN(C)Cc1cccc(c1)N2` [Example 22, 10-Methoxy-N,15-dimethyl-11-(1-methyl-1,2,4-triazol-3-yl)-2,4,8,15,23-pentazatetracyclo[15.3.1.13,7.19,13]tricosa-1(21),3(23),4,6,9,11,13(22),17,19-nonaene-6-carboxamide], the negative-log IC50 (pIC50) on JAK1, at TYK2 and against JAK2 was under 5.30 each time. Moreover, the GI50 in data set [2] worked out at 861 nM.

For `CCn1ccc2scc(Nc3cc(NC(=O)C4CC4)ncc3C(=O)NC)c2c1=O` [Example 17, 6-(Cyclopropanecarboxamido)-4-((5-ethyl-4-oxo-4,5-dihydrothieno[3,2-c]pyridin-3-yl)amino)-N-methylnicotinamide], the pIC50 is under 5.30 on JAK1, under 5.30 on TYK2, 9.69 on TYK2-JH2 domain and under 5.30 at JAK2. In addition, the GI50 is over 10000 nM on Ba/F3-TEL-TYK2 cells and 114 nM in data set [2]. Also, the results for the microsomal CLint at 1 μM in data set [1] (setting [3]), in data set [1] (setting [5]) and in data set [1] (setting [7]) were 47.1 µL/min/mg, 128 µL/min/mg and 209 µL/min/mg, respectively. Besides, the half-life at 1 μM stood at 73.6 min in data set [1] (setting [4]), 27.1 min in data set [1] (setting [6]) and 16.6 min in data set [1] (setting [8]).
